Results reported in patent US7696238B2, “Substituted benzo[d]isoxazol-3-yl amine compounds as analgesics” (Gruenenthal GmbH, priority 2005, dated 2010).

Key:
[1] = target: T1, hKCNQ2/3 (stably transfected hKCNQ2/3 CHO-K1 cell line) (Homo sapiens, UniProt O43525+O43526); assay: Voltage clamp (patch-clamp) measurements, current increase relative to retigabin; type: cell-based; settings: test substance 10 μM at −40 mV; current increase standardized to retigabin (10 μM) effect
T1 construct: expressed in transfected cells; host or cells: CHO-K1
Experimental: II. Voltage Clamp Measurements
In order to confirm electrophysiologically a KCNQ2/3 agonistic action of the substances, patch-clamp measurements [see Hamill O P, Marty A, Neher E, Sakmann B, Sigworth F J: “Improved patch-clamp techniques for high-resolution current recording from cells and cell-free membrane patches”, Pflugers Arch. 1981 August; 391(2):85-100] were carried out in the voltage clamp mode on a stably transfected hKCNQ2/3 CHO-K1 cell line. After formation of the gigaseal the cells were first of all clamped at a holding potential of −60 mV. Depolarising voltage jumps were then applied up to a potential of +20 mV (increment: 20 mV, duration: 1 second), in order to confirm the functional expression of KCNQ2/3 typical currents. The substances were tested at a potential of −40 mV. The current increase induced by retigabin (10 μM) was first of all recorded on each cell at −40 mV as positive control. After completely washing out the retigabin effect (duration: 80 sec) the test substance (10 μM) was applied. The current increase induced by the test substance was standardized to the retigabin effect and stated as relative efficacy (see below).

[2] = target: T2, KCNQ2/3 ion channel (KCNQ2/3-expressing CHO-K1 cells) (Homo sapiens, UniProt O43525+O43526); assay: Fluorescence assay (FLIPR instrument, membrane potential dye) for substances acting agonistically on the KCNQ2/3 ion channel; type: cell-based; settings: difference between maximum and minimum values, agonistic action detected from a value of −40 (and below)
T2 construct: expressed in transfected cells; host or cells: CHO-K1
Experimental: Pharmacological Test Methods I. Fluorescence Assay (FLIPR™ Instrument) for the Identification of Substances Acting Agonistically on the KCNQ2/3 Ion Channel
On the day before the experiment, KCNQ2/3-expressing CHO-K1 cells and CHO-K1 empty strain cells were seeded out onto coated poly-D-lysine black/clear plates (Falcon/BD Company; Order No.: 356640) in a concentration of 20000 cells/100 μl MEM alpha, 50 ml FCS, 5.5 ml PIS/G/solution (100×) and then incubated for 20-24 hours in an incubator (37° C., 5% CO2). On the day of the experiment the HBSS/hepes working solution and the FMP/HBSS/hepes mixture (Membrane Potential Assay Kit Red (FMP), bulk format Cat. No. R8123) were initially prepared according to the following protocol:
• 1000 ml 1× HBSS buffer (Hank's Balanced Salt Solution (1×) (Gibco; No. 14025)+10 ml hepes (1M stock solution, pH 7.4; hepes Na salt (Sigma Company; No. H7006-500 g; storage at 4° C. in a refrigerator) 2. 1× FMP/HBSS/hepes working solution: • 6 ml HBSS/hepes buffer are added to 5 ml of the FMP solution stored at −20° C. (preparation see below; thawing out at room temperature). The test substances (2 mM batch solution in 100% DMSO) contained in drug plates (Costar 96-well plates, catalogue No. 3795) were then diluted by adding HBSS/hepes buffer to a concentration of 30 μM (3× concentrated). The assay plates on which the cells grow were washed once with 200 μl HBSS/hepes (Cellwash Washer, Labsystems Company, catalogue No. 5161550) and the remaining volume was removed by tapping out the inverted plate twice. 100 μl of the FMP/HBSS/hepes working solution were then added in each case to the cell plates and incubated for 1 hour in the CO2 incubator at 37° C. and 5% CO2. The measurements are then carried out with a FLIPR III instrument from the Molecular Devices company (96-format, using the 540-590 nm band-pass filter in the #2 localization). In the experimental setup of the FLIPR software, filter #2 should be selected. The cell plates and the substance plates were fed alternately into the input stack. A signal test was carried out in each case with the cell plates before adding the substance. The test substances were then added via the pipetting unit of the FLIPR (added volume 50 μl, 3× concentrated, end concentration 10 μM) to the cavities of the cell plates in a total volume of 150 μl/well. The threshold data of the FLIPR program were as follows:
The pipette tips were washed after each pipetting procedure 3 times with 1% DMSO in water. The times of the measurement intervals after addition of the test substances are as follows:
Total measurement time: 6 min/plate
The test samples were evaluated by calculating the difference between the maximum and minimum values. EC50/IC50 values are calculated using the Graph Pad Prism software.
Preparation of the membrane potential loading buffer (membrane potential assay kit red (FMP), bulk format cat. No. R8123) according to the manufacturer's instructions:
10 ml of the 10× assay buffer (component B) were diluted with 90 ml of sterile water and then adjusted to pH 7.4 with 1.0N NaOH (1× assay buffer). One vessel with the FLIPR membrane potential assay component A was completely dissolved in 100 ml 1× assay buffer and thoroughly mixed for 10 minutes with a magnetic stirrer. 5 ml aliquots were then stored at −20° C. (storage shelf life ca. 2 weeks).
An agonistic action can be detected starting from a value of −40 (and below).

| SMILES | Voltage clamp: relative efficacy with respect to retigabin [10 μM] [1] | FLIPR membrane potential fluorescence change (ΔF %, max minus min); negative values indicate KCNQ2/3 agonism [2] |
| --- | --- | --- |
| CC(Nc1noc2ccccc12)c1ccc(C(F)(F)F)cc1 (centres unmarked) [Example 1, Benzo[d]isoxazol-3-yl-[1-(4-trifluoro-methylphenyl)-ethyl]-amine] | 0.42 |  |
| CC(Nc1noc2ccccc12)c1ccc(SC(F)(F)F)cc1 (centres unmarked) [Example 2, Benzo[d]isoxazol-3-yl-[1-(4-trifluoromethyl-sulfanylphenyl)-ethyl]-amine] | 0.37 |  |
| N#Cc1cccc(NC(=S)Nc2noc3cc(F)ccc23)c1 [Example 112, 1-(3-cyanophenyl)-3-(6-fluoro-benzo[d]isoxazol-3-yl)-thiourea] | 0.3 |  |
| Cc1ccc(NC(=S)Nc2noc3c(F)cccc23)cc1 [Example 124, 1-(7-fluorobenzo[d]isoxazol-3-yl)-3-p-tolyl-thiourea] |  | −50% |
| COc1cccc2onc(NC(=S)NC(C)c3ccccc3)c12 (centres unmarked) [Example 128, 1-(4-methoxybenzo[d]isoxazol-3-yl)-3-(1-phenylethyl)-thiourea] |  | −47% |
| COc1cccc2onc(NC(=S)NCc3ccc(Cl)cc3)c12 [Example 129, 1-(4-chlorobenzyl)-3-(4-methoxy-benzo[d)isoxazol-3-yl)-thiourea] |  | −42% |
| COc1ccccc1NC(=S)Nc1noc2cccc(OC)c12 [Example 130, 1-(4-methoxybenzo[d]isoxazol-3-yl)-3-(2-methoxyphenyl)-thiourea] | 0.2 |  |
| COc1ccc(Cl)cc1NC(=S)Nc1noc2cccc(OC)c12 [Example 132, 1-(5-chloro-2-methoxyphenyl)-3-(4-methoxybenzo[d]isoxazol-3-yl)-thiourea] |  | −45% |
| COc1ccc(NC(=S)Nc2noc3cccc(OC)c23)c(OC)c1 [Example 134, 1-(2,4-dimethoxyphenyl)-3-(4-methoxybenzo[d]isoxazol-3-yl)-thiourea] |  | −42% |
| COc1cc(NC(=S)Nc2noc3cccc(OCC(F)(F)F)c23)cc(OC)c1OC [Example 135, 1-[4-(2,2,2-trifluoroethoxy)-benzo[d]isoxazol-3-yl]-3-(3,4,5-trimethoxyphenyl)-thiourea] |  | −47.5% |
| FC(F)(F)c1ccc(CNc2noc3ccccc23)cc1 [Example 152, benzo[d]isoxazol-3-yl-(4-trifluoromethylbenzyl)-amine] | 0.22 | −49% |
| FC(F)(F)Oc1ccc(CNc2noc3ccccc23)cc1 [Example 158, benzo[d]isoxazol-3-yl-(4-trifluoromethoxybenzyl)-amine] |  | −53% |
| Fc1ccc2onc(NCc3ccc(OC(F)(F)F)cc3)c2c1 [Example 159, (5-fluorobenzo[d]isoxazol-3-yl)-(4-trifluoromethoxy-benzyl)-amine] | 0.42 | −41% |

Continued, values first:

| Voltage clamp: relative efficacy with respect to retigabin [10 μM] [1] | FLIPR membrane potential fluorescence change (ΔF %, max minus min); negative values indicate KCNQ2/3 agonism [2] | SMILES |
| --- | --- | --- |
| 0.45 | −58% | FC(F)(F)Sc1ccc(CNc2noc3ccccc23)cc1 [Example 160, benzo[d]isoxazol-3-yl-(4-trifluoromethylsulfanyl-benzyl)-amine] |
| 0.61 | −40% | CCCCc1ccc(CNc2noc3cc(Cl)ccc23)cc1 [Example 161, (4-butylbenzyl)-(6-chloro-benzo[d]isoxazol-3-yl)-amine] |
| 0.79 |  | Fc1ccc2onc(NCc3ccc(SC(F)(F)F)cc3)c2c1 [Example 162, (5-fluorobenzo[d]isoxazol-3-yl)-(4-trifluoromethyl-sulfanylbenzyl)-amine] |
| 1.29 | −56% | Fc1cc(C(F)(F)F)ccc1CNc1noc2ccccc12 [Example 163, benzo[d]isoxazol-3-yl-(2-fluoro-4-trifluoromethyl-benzyl)-amine] |
| 0.25 | −61% | Cc1cc(C)cc(CNc2noc3c(F)cccc23)c1 [Example 167, (3,5-dimethylbenzyl)-(7-fluorobenzo[d]isoxazol-3-yl)-amine] |
| 0.35 |  | COc1ccc(CNc2noc3cc(F)ccc23)cc1Br [Example 168, (3-bromo-4-methoxy-benzyl)-(6-fluorobenzo[d]-isoxazol-3-yl)-amine] |
|  | −63.25% | Cc1cc(C)cc(CNc2noc3cc(F)ccc23)c1 [Example 169, (3,5-dimethylbenzyl)-(6-fluorobenzo[d]isoxazol-3-yl)-amine] |
| 0.72 |  | Cc1cc(CNc2noc3cc(F)ccc23)cc(C)c1OCc1ccccc1 [Example 170, (4-benzyloxy-3,5-dimethyl-benzyl)-(6-fluorobenzo[d]isoxazol-3-yl)-amine] |
| 0.68 | −53% | CCCCc1ccc(CNc2noc3cc(F)ccc23)cc1 [Example 171, (4-butylbenzyl)-(6-fluorobenzo[d]isoxazol-3-yl)-amine] |
|  | −68% | Fc1ccc2c(NCc3ccc(SC(F)(F)F)cc3)noc2c1 [Example 172, (6-fluorobenzo[d]isoxazol-3-yl)-(4-trifluoromethyl-sulfanyl-benzyl)-amine] |
| 0.84 | −55% | Fc1ccc2c(NCc3cccc(OCc4ccccc4)c3)noc2c1 [Example 173, (3-benzyloxybenzyl)-(6-fluorobenzo[d]isoxazol-3-yl)-amine] |
| 0.62 |  | FC(F)(F)Sc1ccc(CNc2noc3ccc(Br)cc23)cc1 [Example 176, (5-bromobenzo[d]isoxazol-3-yl)-(4-trifluoromethyl-sulfanyl-benzyl)-amine] |
|  | −74% | Fc1c(Cl)cccc1CNc1noc2cccc(Cl)c12 [Example 200, (4-chlorobenzo[d]isoxazol-3-yl)-(3-chloro-2-fluoro-benzyl)-amine] |
|  | −49% | Fc1cccc2c(NCc3cccc(OC(F)(F)F)c3)noc12 [Example 203, (7-fluorobenzo[d]isoxazol-3-yl)-(3-trifluoromethoxy-benzyl)-amine] |
